The source of these data is PMC9471048, “The signaling and selectivity of α‐adrenoceptor agonists for the human α2A, α2B and α2C‐adrenoceptors and comparison with human α1 and β‐adrenoceptors” (Pharmacology Research & Perspectives, 2022).

SMILES strings stand for the structures. Where two headings read alike, the source gives them in different places.

As usually defined, the IC50 is the midpoint of a concentration-inhibition curve.

For experiment [1], the target named is T1, human α2A‐adrenoceptor (Homo sapiens, UniProt P08913).
T1 sequence (P08913 1-465): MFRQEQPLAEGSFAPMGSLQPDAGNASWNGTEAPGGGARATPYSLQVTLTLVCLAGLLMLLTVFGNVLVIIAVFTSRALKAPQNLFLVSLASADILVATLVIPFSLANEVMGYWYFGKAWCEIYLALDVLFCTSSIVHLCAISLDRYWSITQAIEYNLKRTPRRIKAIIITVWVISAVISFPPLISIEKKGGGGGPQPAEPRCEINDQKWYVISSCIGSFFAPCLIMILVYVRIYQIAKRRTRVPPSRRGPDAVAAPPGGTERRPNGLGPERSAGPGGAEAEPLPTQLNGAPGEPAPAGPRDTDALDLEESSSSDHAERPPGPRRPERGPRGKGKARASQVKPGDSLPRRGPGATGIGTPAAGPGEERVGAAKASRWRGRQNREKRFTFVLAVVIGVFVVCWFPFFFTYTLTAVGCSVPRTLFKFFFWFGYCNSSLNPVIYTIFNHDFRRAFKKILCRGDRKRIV

Experiment [2] has as its target T2, human α2C‐adrenoceptor (Homo sapiens, UniProt P18825).
T2 sequence (P18825 1-462): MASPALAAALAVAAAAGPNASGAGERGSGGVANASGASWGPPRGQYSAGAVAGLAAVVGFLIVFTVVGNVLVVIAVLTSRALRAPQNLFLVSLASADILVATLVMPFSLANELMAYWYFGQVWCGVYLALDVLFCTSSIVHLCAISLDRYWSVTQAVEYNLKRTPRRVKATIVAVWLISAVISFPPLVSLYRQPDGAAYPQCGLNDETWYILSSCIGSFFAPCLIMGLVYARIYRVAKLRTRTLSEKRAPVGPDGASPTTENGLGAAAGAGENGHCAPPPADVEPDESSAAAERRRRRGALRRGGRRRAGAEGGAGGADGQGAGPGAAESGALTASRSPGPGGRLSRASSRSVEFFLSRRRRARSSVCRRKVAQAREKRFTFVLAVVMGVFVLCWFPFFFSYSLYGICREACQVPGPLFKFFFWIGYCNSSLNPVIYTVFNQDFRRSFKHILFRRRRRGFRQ
The experiment in a line: ERK1/2‐phosphorylation in CHO‐α2C cells. Type of experiment: cell-based. Set-up: expressed in transfected cells; host or cells: CHO-K1 with CRE-SPAP reporter.

The target in experiment [3] is T1, human α2A‐adrenoceptor. The experiment in a line: ERK1/2‐phosphorylation in CHO‐α2A cells. The class given is cell-based. Also on record: expressed in transfected cells; host or cells: CHO-K1 with CRE-SPAP reporter.
The target in experiment [4] is T2, human α2C‐adrenoceptor.
In experiment [5] the target is T2, human α2C‐adrenoceptor. The experiment in a line: 3H‐rauwolscine whole cell binding in CHO‐α2C cells. Set-up: expressed in transfected cells; host or cells: CHO-K1 with CRE-SPAP reporter.
Experiment [6] deals with T1, human α2A‐adrenoceptor. The experiment in a line: 3H‐rauwolscine whole cell binding in CHO‐α2A cells. Set-up: expressed in transfected cells; host or cells: CHO-K1 with CRE-SPAP reporter.
Setting [7] is: CHO‐α2A (cell line 1), absence of forskolin.
[8] abbreviates: CHO‐α2A (cell line 1, 5830 fmol/mg protein), 3 μM forskolin.
The mark [9] stands for this setting: CHO‐α2C cells, CRE‐SPAP production in the absence of forskolin.
Where [10] appears, read: CHO‐α2C cells, 3H‐rauwolscine whole cell binding, given as negative log KD, mean only (SEM in Table 4).
Where [11] appears, read: CHO‐α2C cells, maximum response compared to 10 μM PDBu, mean ± SEM.
[12] abbreviates: CHO‐α2C cells, given as negative log EC50, mean ± SEM.
Setting [13] is: CHO‐α2C cells, % inhibition from the 3 μM forskolin control, mean ± SEM.
[14] abbreviates: CHO‐α2C cells, inhibition of 3 μM forskolin‐stimulated CRE‐SPAP production, given as negative log IC50, mean ± SEM.

On to `CCC1(c2cnc[nH]2)Cc2ccccc2C1` [Atipamezole], for which the “Log EC50 (Gs), CRE‐SPAP (without forskolin)” value (shortened to “Log EC50 … (without forskolin)”) in experiment [1] (setting [7]) and in experiment [4] (setting [9]) was “No response” throughout. For the same compound, the “Log IC50 (Gi), CRE‐SPAP (with forskolin)” value in experiment [1] (setting [8]) is given as “No response”. In addition, the “% 10 μM PDBu, ERK1/2‐phosphorylation” value was determined as 63.7 ± 8.3% in experiment [2] and 42.4 ± 5.9% in experiment [3]. Besides, the EC50 was 0.00832 µM in experiment [2] (CHO‐α2C cells, given as negative log EC50, mean ± SEM, read-out: Log EC50, ERK1/2‐phosphorylation (converted)) and 0.0288 µM in experiment [3] (CHO‐α2A, read-out: Log EC50, ERK1/2‐phosphorylation (converted)). The “% inhibition, CRE‐SPAP (with forskolin)” value in experiment [4] came to 15.8 ± 7.5%. The compound also showed an IC50 in experiment [4] of 0.2 µM. The “Log efficacy ratio (KD/IC50)” value in experiment [4] is −1.78.

As to `C=CCN1CCc2nc(N)sc2CC1` [BHT920], in experiment [5], the “Log KD” value is listed as −5.99. Moreover, in experiment [2], the “% 10 μM PDBu, ERK1/2‐phosphorylation” value stood at 144.8 ± 23.2% and the “Log EC50, ERK1/2‐phosphorylation” value is −8.18 ± 0.12. In experiment [4], the “% inhibition, CRE‐SPAP (with forskolin)” value worked out at 86.8 ± 6.0%; the “Log EC50 … (without forskolin)” value is on record as “No response”; the “Log IC50 (Gi), CRE‐SPAP (with forskolin)” value was −7.41 ± 0.10; the “Log efficacy ratio (KD/IC50)” value was found to be 1.42.

Turning to `CNC[C@H](O)c1cccc(O)c1` [R‐phenylephrine], in experiment [2], the “% 10 μM PDBu, ERK1/2‐phosphorylation” value turned out to be 157.0 ± 15.4%. For the same compound, the “% inhibition, CRE‐SPAP (with forskolin)” value in experiment [4] came to 77.5 ± 3.4%.

As for `C1=C(c2cnc[nH]2)c2ccsc2CC1` [RWJ52353], the “Log KD (apparent), CHO‐α2C” value in experiment [5] (3H‐rauwolscine whole cell binding, ^app: apparent KD, IC50 from extrapolated curve as not all specific binding was inhibited) was −4.67 ± 0.08^app. In experiment [5] (setting [10]), the “Log KD” value is reported as −4.67. In addition, the “% 10 μM PDBu, ERK1/2‐phosphorylation” value in experiment [2] (setting [11]) is recorded as 143.5 ± 14.0%. The “Log EC50, ERK1/2‐phosphorylation” value in experiment [2] (setting [12]) was −7.74 ± 0.09. The “Log efficacy ratio (KD/IC50)” value in experiment [4] came out at 1.80. Moreover, the “% inhibition, CRE‐SPAP (with forskolin)” value in experiment [4] (setting [13]) was found to be 76.5 ± 5.6%. Also, the “Log EC50 … (without forskolin)” value in experiment [4] (setting [9]) was “No response”. Also, the “Log IC50 (Gi), CRE‐SPAP (with forskolin)” value in experiment [4] (setting [14]) was −6.47 ± 0.10.

On to `CC(Cc1ccc(O)cc1)NCC(O)c1cc(O)cc(O)c1` (centres unmarked) [Fenoterol], for which the Kd in experiment [5] (Log KD) is 151 µM; in experiment [5] (Log KD (apparent), CHO‐α2C), 151 µM; in experiment [6] (Log KD (apparent), CHO‐α2A), 347 ± 5.01 µM; in experiment [6] (Log KD (binding)), 347 µM. Besides, the “Log EC50 … (without forskolin)” value in experiment [1] and in experiment [4] was “No response” in each case. Also, the “Log IC50 (Gi), CRE‐SPAP (with forskolin)” value in experiment [1] and in experiment [4] was “No response” in each case.

For `CCc1cccc(CC)c1NC1=NCCN1` [ST‐91], in experiment [5] (setting [10]), the “Log KD” value is given as −6.18. Moreover, the “% 10 μM PDBu, ERK1/2‐phosphorylation” value in experiment [2] (setting [11]) was found to be 154.0 ± 15.0%. Besides, in experiment [2] (setting [12]), the “Log EC50, ERK1/2‐phosphorylation” value is on record as −7.93 ± 0.17. In addition, the “Log efficacy ratio (KD/IC50)” value in experiment [4] turned out to be 1.28. Also, in experiment [4] (setting [13]), the “% inhibition, CRE‐SPAP (with forskolin)” value is on record as 76.5 ± 4.4%. In addition, the “Log EC50 … (without forskolin)” value in experiment [4] (setting [9]) is on record as “No response”. In addition, the “Log IC50 (Gi), CRE‐SPAP (with forskolin)” value in experiment [4] (setting [14]) was −7.46 ± 0.09.

On to `OCc1cc(C(O)CNCCCCCCOCCCCc2ccccc2)ccc1O` (centres unmarked) [Salmeterol], for which the Kd was 5.25 µM in experiment [5] (CHO‐α2C cells, 3H‐rauwolscine whole cell binding, given as negative log KD, mean only (SEM in Table 4), read-out: Log KD (converted)) and 17.4 µM in experiment [6] (read-out: Log KD (binding) (converted)). The “Log EC50 … (without forskolin)” value in experiment [1] (setting [7]) and in experiment [4] (setting [9]) was “No response” throughout. For the same compound, the “Log IC50 (Gi), CRE‐SPAP (with forskolin)” value in experiment [1] (setting [8]) and in experiment [4] was “No response” in each case.

Consider `CC(N)C(O)c1ccc(O)c(O)c1` (stereo not drawn) [α‐methylnorepinephrine], for which the “Log KD” value in experiment [5] is on record as −5.16. Moreover, in experiment [6], the “Log KD (apparent), CHO‐α2A” value was −3.69 ± 0.04^app and the “Log KD (binding)” value is given as −3.69. Further, in experiment [1], the “% 3 μM forskolin, CRE‐SPAP (without forskolin)” value was found to be 171.1 ± 4.3%; the “Log EC50 (Gs), CRE‐SPAP (with forskolin)” value is −5.31 ± 0.05; the “Log EC50 … (without forskolin)” value is given as −5.29 ± 0.02; the “Log IC50 (Gi), CRE‐SPAP (with forskolin)” value is reported as −6.47 ± 0.05. The “% 10 μM PDBu, ERK1/2‐phosphorylation” value in experiment [3] is 142.6 ± 22.3%. Also, in experiment [4], the “% inhibition, CRE‐SPAP (with forskolin)” value is listed as 85.2 ± 3.0%; the “Log EC50 … (without forskolin)” value was “No response”; the “Log IC50 (Gi), CRE‐SPAP (with forskolin)” value was −6.52 ± 0.12.
